System: MV-4-11 cells
Test: Gene expression microarray analysis (Affymetrix PrimeView) and GSEA
Type: cell-based, human
Design: RFU PODN (11730768_x_at) / Fold change /veh PODN (11730768_x_at) / RFU LINC00158 (11744669_a_at) / Fold change /veh LINC00158 (11744669_a_at) / RFU DUSP10 (11751237_a_at) / Fold change /veh DUSP10 (11751237_a_at) / RFU ID3 (11757404_x_at) / Fold change /veh ID3 (11757404_x_at) / RFU PLEKHG5 (11737974_s_at) / Fold change /veh PLEKHG5 (11737974_s_at) / RFU LRRC4B (11730491_at) / Fold change /veh LRRC4B (11730491_at) / RFU GIMAP4 (11747438_a_at) / Fold change /veh GIMAP4 (11747438_a_at) / RFU KRT8 (11758183_x_at) / Fold change /veh KRT8 (11758183_x_at) / RFU CNN1 (11734310_a_at) / Fold change /veh CNN1 (11734310_a_at) / RFU VPS37D (11726825_at) / Fold change /veh VPS37D (11726825_at) / RFU C10orf10 (11716522_x_at) / Fold change /veh C10orf10 (11716522_x_at) / RFU KIR2DL2 /// KIR2DL4 /// KIR2DL5A /// KIR2DL5B /// KIR2DS1 /// KIR2DS2 /// KIR2DS3 /// KIR2DS4 /// KIR3DL3 /// KIR3DL3 /// KIR3DS1 (11738374_at) / Fold change /veh KIR2DL2 /// KIR2DL4 /// KIR2DL5A /// KIR2DL5B /// KIR2DS1 /// KIR2DS2 /// KIR2DS3 /// KIR2DS4 /// KIR3DL3 /// KIR3DL3 /// KIR3DS1 (11738374_at) / RFU C1QL1 (11718748_at) / Fold change /veh C1QL1 (11718748_at) / RFU TMPRSS4 (11747572_a_at) / Fold change /veh TMPRSS4 (11747572_a_at) / RFU HAMP (11756126_x_at) / Fold change /veh HAMP (11756126_x_at) / RFU RNFT2 (11725882_a_at) / Fold change /veh RNFT2 (11725882_a_at) / RFU NR4A2 (11747474_a_at) / Fold change /veh NR4A2 (11747474_a_at) / RFU ABCC12 (11746883_a_at) / Fold change /veh ABCC12 (11746883_a_at) / RFU TMEM136 (11760407_x_at) / Fold change /veh TMEM136 (11760407_x_at) / RFU CLDN22 /// WWC2 (11732394_at) / Fold change /veh CLDN22 /// WWC2 (11732394_at) / RFU HLA-DPB1 (11760878_x_at) / Fold change /veh HLA-DPB1 (11760878_x_at) / RFU SPINT1 (11716480_a_at) / Fold change /veh SPINT1 (11716480_a_at) / RFU GAP43 (11754022_s_at) / Fold change /veh GAP43 (11754022_s_at) / RFU A4GNT (11735810_at) / Fold change /veh A4GNT (11735810_at) / RFU PRB3 (11715151_x_at) / Fold change /veh PRB3 (11715151_x_at) / RFU TUBB4B (11761932_at) / Fold change /veh TUBB4B (11761932_at) / RFU CAPN14 (11732068_a_at) / Fold change /veh CAPN14 (11732068_a_at) / RFU TMCC2 (11721928_a_at) / Fold change /veh TMCC2 (11721928_a_at) / RFU IRGQ (11745062_a_at) / Fold change /veh IRGQ (11745062_a_at) / RFU FAM174B (11720279_a_at) / Fold change /veh FAM174B (11720279_a_at) / RFU TMPRSS4 (11748680_a_at) / Fold change /veh TMPRSS4 (11748680_a_at) / RFU FAM212B (11763350_a_at) / Fold change /veh FAM212B (11763350_a_at) / RFU PLEKHG5 (11743358_a_at) / Fold change /veh PLEKHG5 (11743358_a_at) / RFU ZSCAN30 (11745921_a_at) / Fold change /veh ZSCAN30 (11745921_a_at) / RFU CMKLR1 (11741424_a_at) / Fold change /veh CMKLR1 (11741424_a_at) / RFU LOC101060620 /// MAPK8IP1 (11723275_at) / Fold change /veh LOC101060620 /// MAPK8IP1 (11723275_at) / RFU SPTSSB (11747773_x_at) / Fold change /veh SPTSSB (11747773_x_at) / RFU PRSS12 (11739890_at) / Fold change /veh PRSS12 (11739890_at) / RFU BIN1 (11741810_x_at) / Fold change /veh BIN1 (11741810_x_at) / RFU WNT11 (11732464_a_at) / Fold change /veh WNT11 (11732464_a_at) / RFU C10orf10 (11716521_a_at) / Fold change /veh C10orf10 (11716521_a_at) / RFU C5orf56 (11738089_at) / Fold change /veh C5orf56 (11738089_at) / RFU CYB561 (11721691_x_at) / Fold change /veh CYB561 (11721691_x_at) / RFU ANKRD19P (11752326_a_at) / Fold change /veh ANKRD19P (11752326_a_at) / RFU OR2T12 /// OR2T33 /// OR2T8 (11738714_s_at) / Fold change /veh OR2T12 /// OR2T33 /// OR2T8 (11738714_s_at) / RFU VCAN (11748164_a_at) / Fold change /veh VCAN (11748164_a_at) / RFU JSRP1 (11732532_at) / Fold change /veh JSRP1 (11732532_at) / RFU KRTAP10-11 (11738290_x_at) / Fold change /veh KRTAP10-11 (11738290_x_at) / RFU MYO3A (11730013_a_at) / Fold change /veh MYO3A (11730013_a_at) / RFU EBF3 (11725865_a_at) / Fold change /veh EBF3 (11725865_a_at) / RFU CAMK2N1 (11719241_x_at) / Fold change /veh CAMK2N1 (11719241_x_at) / RFU C5orf56 (11738088_a_at) / Fold change /veh C5orf56 (11738088_a_at) / RFU OLFML3 (11715873_a_at) / Fold change /veh OLFML3 (11715873_a_at) / RFU LOC100653217 /// NTM (11731650_a_at) / Fold change /veh LOC100653217 /// NTM (11731650_a_at) / RFU MAPK11 (11762145_a_at) / Fold change /veh MAPK11 (11762145_a_at) / RFU FIZ1 (11724087_x_at) / Fold change /veh FIZ1 (11724087_x_at) / RFU OASL (11726364_x_at) / Fold change /veh OASL (11726364_x_at) / RFU SOX15 (11748057_x_at) / Fold change /veh SOX15 (11748057_x_at) / RFU CD79A (11719716_a_at) / Fold change /veh CD79A (11719716_a_at) / RFU HIST1H1D (11736915_at) / Fold change /veh HIST1H1D (11736915_at) / RFU CASKIN2 (11723855_a_at) / Fold change /veh CASKIN2 (11723855_a_at) / RFU LOC730098 (11760151_x_at) / Fold change /veh LOC730098 (11760151_x_at) / RFU OR4N2 (11742367_at) / Fold change /veh OR4N2 (11742367_at) / RFU PRRT2 (11749266_a_at) / Fold change /veh PRRT2 (11749266_a_at) / RFU SNX32 (11753110_a_at) / Fold change /veh SNX32 (11753110_a_at) / RFU CDHR5 (11726645_a_at) / Fold change /veh CDHR5 (11726645_a_at) / RFU RCAN1 (11760418_a_at) / Fold change /veh RCAN1 (11760418_a_at) / RFU FAM167A (11723789_a_at) / Fold change /veh FAM167A (11723789_a_at) / RFU FAM26E (11764081_at) / Fold change /veh FAM26E (11764081_at) / RFU ISYNA1 (11749810_s_at) / Fold change /veh ISYNA1 (11749810_s_at) / RFU ACY1 (11761880_at) / Fold change /veh ACY1 (11761880_at) / RFU 11764098_at / Fold change /veh 11764098_at / RFU SAMD14 (11745864_x_at) / Fold change /veh SAMD14 (11745864_x_at) / RFU NPB (11741838_a_at) / Fold change /veh NPB (11741838_a_at) / RFU TMPRSS6 (11731388_a_at) / Fold change /veh TMPRSS6 (11731388_a_at) / RFU KRTAP10-2 (11738614_at) / Fold change /veh KRTAP10-2 (11738614_at) / RFU ARHGAP8 /// PRR5-ARHGAP8 (11727945_x_at) / Fold change /veh ARHGAP8 /// PRR5-ARHGAP8 (11727945_x_at) / RFU KRTAP5-7 /// NADSYN1 (11734609_at) / Fold change /veh KRTAP5-7 /// NADSYN1 (11734609_at) / RFU RASL12 (11751679_a_at) / Fold change /veh RASL12 (11751679_a_at) / RFU CDKN2B (11736163_a_at) / Fold change /veh CDKN2B (11736163_a_at) / RFU PRF1 (11729649_at) / Fold change /veh PRF1 (11729649_at) / RFU, ZNF638 /// ZNF638-IT1 / Fold change vs veh, ZNF638 /// ZNF638-IT1 / RFU, PANK3 / Fold change vs veh, PANK3 / RFU, SH3YL1 / Fold change vs veh, SH3YL1 / RFU, ZEB2 / Fold change vs veh, ZEB2 / RFU, NRIP1 / Fold change vs veh, NRIP1 / RFU, PTTG1IP / Fold change vs veh, PTTG1IP / RFU, CAPN2 / Fold change vs veh, CAPN2 / RFU, MED14 / Fold change vs veh, MED14 / RFU, SNORA58 / Fold change vs veh, SNORA58 / RFU, C1orf63 / Fold change vs veh, C1orf63 / RFU, LRRFIP1 / Fold change vs veh, LRRFIP1 / RFU, NDUFAF7 / Fold change vs veh, NDUFAF7 / RFU, SLC12A2 / Fold change vs veh, SLC12A2 / RFU, IBTK / Fold change vs veh, IBTK / RFU, ESF1 / Fold change vs veh, ESF1 / Fold change vs veh, TMEM50B / RFU, TAOK1 / Fold change vs veh, TAOK1 / RFU, ACBD3 / Fold change vs veh, ACBD3 / RFU, TMA16 / Fold change vs veh, TMA16 / RFU, RWDD3 / Fold change vs veh, RWDD3 / RFU, BCAT1 / Fold change vs veh, BCAT1 / RFU, EDEM3 / Fold change vs veh, EDEM3 / RFU, TMEM33 / Fold change vs veh, TMEM33 / RFU, WDR75 / Fold change vs veh, WDR75 / RFU, AHCTF1 / Fold change vs veh, AHCTF1 / RFU, TFRC / Fold change vs veh, TFRC / RFU, ZDHHC17 / Fold change vs veh, ZDHHC17 / RFU, NOM1 / Fold change vs veh, NOM1 / RFU, ARL8B / Fold change vs veh, ARL8B / RFU, ZBTB11 / Fold change vs veh, ZBTB11 / RFU, TAMM41 / Fold change vs veh, TAMM41 / RFU, KIAA1704 /// LOC100996395 / Fold change vs veh, KIAA1704 /// LOC100996395 / RFU, ING1 / Fold change vs veh, ING1 / RFU, TRMT61B / Fold change vs veh, TRMT61B / RFU, FUBP3 / Fold change vs veh, FUBP3 / RFU, TP53 / Fold change vs veh, TP53 / RFU, TNKS2 / Fold change vs veh, TNKS2 / RFU, ZFP14 / Fold change vs veh, ZFP14 / RFU, ACTR2 / Fold change vs veh, ACTR2 / RFU, PPP3R1 / Fold change vs veh, PPP3R1 / RFU, PIK3R1 / Fold change vs veh, PIK3R1 / RFU, HNRNPA1 / Fold change vs veh, HNRNPA1 / RFU, RNF170 / Fold change vs veh, RNF170 / RFU, ZNF28 / Fold change vs veh, ZNF28 / RFU, RNGTT / Fold change vs veh, RNGTT / RFU, OGT / Fold change vs veh, OGT / RFU, BRD1 / Fold change vs veh, BRD1 / RFU, MARS / Fold change vs veh, MARS / RFU, ZNF655 / Fold change vs veh, ZNF655 / RFU, FAHD1 / Fold change vs veh, FAHD1 / RFU, BDP1 / Fold change vs veh, BDP1 / RFU, LRRCC1 / Fold change vs veh, LRRCC1 / RFU, ARID1A / Fold change vs veh, ARID1A / RFU, ZNF146 / Fold change vs veh, ZNF146 / RFU, ZNF330 / Fold change vs veh, ZNF330 / RFU, GPN3 / Fold change vs veh, GPN3 / RFU, C9orf123 / Fold change vs veh, C9orf123 / RFU, N4BP2L2 / Fold change vs veh, N4BP2L2 / RFU, ARFIP1 / Fold change vs veh, ARFIP1 / RFU, FAM179B / Fold change vs veh, FAM179B / RFU, BCL10 / Fold change vs veh, BCL10 / RFU, UHRF1BP1L / Fold change vs veh, UHRF1BP1L / RFU, BET1 / Fold change vs veh, BET1 / RFU, CNOT2 / Fold change vs veh, CNOT2 / RFU, ZNF268 / Fold change vs veh, ZNF268 / Fold change vs veh, ZNF507 / RFU, DGCR2 / Fold change vs veh, DGCR2 / RFU, WDSUB1 / Fold change vs veh, WDSUB1 / Fold change vs veh, HSP90B1 /// MIR3652 / RFU, ADSS / Fold change vs veh, ADSS / RFU, GK / Fold change vs veh, GK / RFU, ZNF148 / Fold change vs veh, ZNF148 / RFU, TAF9 / Fold change vs veh, TAF9 / RFU, SLC1A5 / Fold change vs veh, SLC1A5 / RFU, SLMO2 / Fold change vs veh, SLMO2 / RFU, ABCC4 / Fold change vs veh, ABCC4 / RFU, LOC101060439 /// RAP1B / Fold change vs veh, LOC101060439 /// RAP1B / RFU, RFX7 / Fold change vs veh, RFX7 / RFU, GTPBP10 / Fold change vs veh, GTPBP10 / RFU, CNEP1R1 / Fold change vs veh, CNEP1R1 / RFU, BIVM-ERCC5 /// ERCC5 / Fold change vs veh, BIVM-ERCC5 /// ERCC5 / RFU, ILF3 / Fold change vs veh, ILF3 / RFU 11762660_at / Fold change /veh 11762660_at / RFU VCAN (11757783_s_at) / Fold change /veh VCAN (11757783_s_at) / RFU DDX43 (11728927_at) / Fold change /veh DDX43 (11728927_at) / RFU KRT8 (11758188_x_at) / Fold change /veh KRT8 (11758188_x_at) / RFU NKD1 (11759106_at) / Fold change /veh NKD1 (11759106_at) / RFU SRD5A1 (11742802_a_at) / Fold change /veh SRD5A1 (11742802_a_at) / RFU TPSAB1 /// TPSB2 (11721975_s_at) / Fold change /veh TPSAB1 /// TPSB2 (11721975_s_at) / RFU GSTM3 (11746129_a_at) / Fold change /veh GSTM3 (11746129_a_at) / RFU IL23R (11737362_x_at) / Fold change /veh IL23R (11737362_x_at) / RFU TMEM51 (11727254_a_at) / Fold change /veh TMEM51 (11727254_a_at) / RFU PIWIL2 (11732686_x_at) / Fold change /veh PIWIL2 (11732686_x_at) / RFU ORM1 (11744905_x_at) / Fold change /veh ORM1 (11744905_x_at) / RFU CCDC152 (11743942_at) / Fold change /veh CCDC152 (11743942_at) / RFU ECM1 (11717891_a_at) / Fold change /veh ECM1 (11717891_a_at) / RFU IL23R (11748794_a_at) / Fold change /veh IL23R (11748794_a_at) / RFU TNFAIP8L3 (11732012_x_at) / Fold change /veh TNFAIP8L3 (11732012_x_at) / RFU MBOAT4 (11741988_at) / Fold change /veh MBOAT4 (11741988_at) / RFU 11764193_at / Fold change /veh 11764193_at / RFU TMEM53 (11763286_at) / Fold change /veh TMEM53 (11763286_at) / RFU MAGEB2 (11727129_at) / Fold change /veh MAGEB2 (11727129_at) / RFU TMEM200A (11744735_a_at) / Fold change /veh TMEM200A (11744735_a_at) / RFU CCDC152 (11751479_a_at) / Fold change /veh CCDC152 (11751479_a_at) / RFU FAM211A (11726209_a_at) / Fold change /veh FAM211A (11726209_a_at) / RFU RGS16 (11746705_a_at) / Fold change /veh RGS16 (11746705_a_at) / RFU VCAN (11755009_s_at) / Fold change /veh VCAN (11755009_s_at) / RFU RHOB (11743442_s_at) / Fold change /veh RHOB (11743442_s_at) / RFU RGS16 (11720943_a_at) / Fold change /veh RGS16 (11720943_a_at) / RFU RGS16 (11720944_at) / Fold change /veh RGS16 (11720944_at) / RFU, VPS4B / Fold change vs veh, VPS4B / RFU, CREB1 / Fold change vs veh, CREB1 / RFU, DNAJC13 / Fold change vs veh, DNAJC13 / RFU, GNAQ / Fold change vs veh, GNAQ / RFU, CDK5R1 / Fold change vs veh, CDK5R1 / RFU, ZRANB3 / Fold change vs veh, ZRANB3 / RFU, CUL4A / Fold change vs veh, CUL4A / RFU, CCNY / Fold change vs veh, CCNY / RFU, UFL1 / Fold change vs veh, UFL1 / RFU, COG3 / Fold change vs veh, COG3 / RFU, DIAPH2 / Fold change vs veh, DIAPH2 / RFU, SKA2 / Fold change vs veh, SKA2 / RFU, AFF3 / Fold change vs veh, AFF3 / RFU, LMF1 / Fold change vs veh, LMF1 / RFU, IPO11 / Fold change vs veh, IPO11 / RFU, DFFB / Fold change vs veh, DFFB / RFU, FOXP1 / Fold change vs veh, FOXP1 / RFU, CARD8 / Fold change vs veh, CARD8 / RFU, STRN3 / Fold change vs veh, STRN3 / RFU, ADK / Fold change vs veh, ADK / RFU, RASSF2 / Fold change vs veh, RASSF2 / RFU, WIPF1 / Fold change vs veh, WIPF1 / RFU, LARP1B / Fold change vs veh, LARP1B / RFU, RASA1 / Fold change vs veh, RASA1 / RFU, RB1 / Fold change vs veh, RB1 / RFU, PPFIA1 / Fold change vs veh, PPFIA1 / RFU, MAT2A / Fold change vs veh, MAT2A / RFU, CCT5 / Fold change vs veh, CCT5 / RFU, WDR92 / Fold change vs veh, WDR92 / RFU, CUX1 / Fold change vs veh, CUX1 / RFU, TTC7A / Fold change vs veh, TTC7A / RFU, TMEM135 / Fold change vs veh, TMEM135 / RFU, DEPTOR / Fold change vs veh, DEPTOR / RFU, CPM / Fold change vs veh, CPM / RFU, DNAJB6 / Fold change vs veh, DNAJB6 / RFU, CACNA2D3 / Fold change vs veh, CACNA2D3 / RFU, DTX4 / Fold change vs veh, DTX4 / RFU, TFCP2 / Fold change vs veh, TFCP2 / RFU, GMCL1 /// GMCL1P1 / Fold change vs veh, GMCL1 /// GMCL1P1 / RFU, AEBP2 / Fold change vs veh, AEBP2 / RFU, SNHG1 /// SNORD22 /// SNORD25 /// SNORD26 /// SNORD27 /// SNORD28 /// SNORD29 /// SNORD31 / Fold change vs veh, SNHG1 /// SNORD22 /// SNORD25 /// SNORD26 /// SNORD27 /// SNORD28 /// SNORD29 /// SNORD31 / Fold change (Aza/veh), C12orf56 (ProbeSet 11735607_a_at) / Fold change (ACY-1035/veh), C12orf56 (ProbeSet 11735607_a_at) / Fold change (Aza/veh), FGFR1OP (ProbeSet 11751329_s_at) / Fold change (ACY-1035/veh), FGFR1OP (ProbeSet 11751329_s_at) / Fold change (Aza/veh), VPS36 (ProbeSet 11739960_a_at) / Fold change (ACY-1035/veh), VPS36 (ProbeSet 11739960_a_at) / RFU SYPL1 (11715823_x_at) / Fold change /veh SYPL1 (11715823_x_at) / RFU IGFBP7 (11715501_s_at) / Fold change /veh IGFBP7 (11715501_s_at) / RFU REEP3 (11722064_at) / Fold change /veh REEP3 (11722064_at) / RFU IGLL1 (11728026_x_at) / Fold change /veh IGLL1 (11728026_x_at): dose or concentration left out as unconfirmed
Conditions: ProbeSet 11716891_at; LIST B

With `Nc1ccc(-c2cccs2)cc1NC(=O)c1ccc2c(c1)cc(C1CC1)n2CCN1CCOCC1` [ACY-1035] the “RFU, C9orf123” value was 39.54 RFU.
